In the NIST ThermoML archive (doi:10.1016/j.jct.2006.11.003):
Numbers after ± are expanded uncertainties.

Assay: xn = mol fraction of the nth substance listed
Conditions: 101 kPa, Liquid

Cc1ccccc1C [1,2-dimethylbenzene] + CN1CCCC1=O
Conditions | mass density [kg/m3]
293.15 K, x1 = 0.0478 | 1024.81 ± 0.45
293.15 K, x1 = 0.0865 | 1018.48 ± 0.42
293.15 K, x1 = 0.1584 | 1006.82 ± 0.37
293.15 K, x1 = 0.2266 | 995.89 ± 0.36
293.15 K, x1 = 0.2714 | 988.75 ± 0.39
293.15 K, x1 = 0.3393 | 978.06 ± 0.44
293.15 K, x1 = 0.387 | 970.61 ± 0.47
293.15 K, x1 = 0.4321 | 963.63 ± 0.49
293.15 K, x1 = 0.5011 | 953.04 ± 0.54
293.15 K, x1 = 0.5668 | 943.08 ± 0.58
293.15 K, x1 = 0.6297 | 933.64 ± 0.61
293.15 K, x1 = 0.7099 | 921.74 ± 0.66
293.15 K, x1 = 0.7859 | 910.6 ± 0.7
293.15 K, x1 = 0.8577 | 900.18 ± 0.74
293.15 K, x1 = 0.9388 | 888.55 ± 0.79
293.15 K, x1 = 1 | 879.84 ± 0.82
303.15 K, x1 = 0.0565 | 1014.2 ± 0.4
303.15 K, x1 = 0.1122 | 1005.19 ± 0.37
303.15 K, x1 = 0.1895 | 992.78 ± 0.37
303.15 K, x1 = 0.2467 | 983.7 ± 0.41
303.15 K, x1 = 0.3239 | 971.56 ± 0.46
303.15 K, x1 = 0.3967 | 960.27 ± 0.51
303.15 K, x1 = 0.4565 | 951.08 ± 0.54
303.15 K, x1 = 0.5127 | 942.54 ± 0.58
303.15 K, x1 = 0.5655 | 934.58 ± 0.61
303.15 K, x1 = 0.6251 | 925.68 ± 0.64
303.15 K, x1 = 0.7076 | 913.5 ± 0.69
303.15 K, x1 = 0.7626 | 905.46 ± 0.72
303.15 K, x1 = 0.8498 | 892.86 ± 0.77
303.15 K, x1 = 0.9049 | 884.97 ± 0.8
303.15 K, x1 = 0.9639 | 876.58 ± 0.84
303.15 K, x1 = 1 | 871.48 ± 0.86
313.15 K, x1 = 0.0485 | 1006.39 ± 0.37
313.15 K, x1 = 0.0922 | 999.35 ± 0.35
313.15 K, x1 = 0.1795 | 985.39 ± 0.4
313.15 K, x1 = 0.2368 | 976.31 ± 0.44
313.15 K, x1 = 0.3036 | 965.84 ± 0.48
313.15 K, x1 = 0.3679 | 955.86 ± 0.52
313.15 K, x1 = 0.4285 | 946.56 ± 0.56
313.15 K, x1 = 0.4894 | 937.31 ± 0.6
313.15 K, x1 = 0.5375 | 930.05 ± 0.63
313.15 K, x1 = 0.6034 | 920.22 ± 0.67
313.15 K, x1 = 0.673 | 909.94 ± 0.71
313.15 K, x1 = 0.7355 | 900.8 ± 0.74
313.15 K, x1 = 0.8196 | 888.65 ± 0.79
313.15 K, x1 = 0.8767 | 880.48 ± 0.82
313.15 K, x1 = 0.9289 | 873.06 ± 0.85
313.15 K, x1 = 1 | 863.03 ± 0.89
323.15 K, x1 = 0.0478 | 997.82 ± 0.35
323.15 K, x1 = 0.1014 | 989.16 ± 0.39
323.15 K, x1 = 0.1603 | 979.74 ± 0.43
323.15 K, x1 = 0.2364 | 967.69 ± 0.48
323.15 K, x1 = 0.3026 | 957.34 ± 0.52
323.15 K, x1 = 0.3575 | 948.83 ± 0.55
323.15 K, x1 = 0.4244 | 938.56 ± 0.59
323.15 K, x1 = 0.4915 | 928.37 ± 0.63
323.15 K, x1 = 0.5582 | 918.35 ± 0.67
323.15 K, x1 = 0.6217 | 908.9 ± 0.71
323.15 K, x1 = 0.6735 | 901.26 ± 0.74
323.15 K, x1 = 0.7536 | 889.56 ± 0.79
323.15 K, x1 = 0.8206 | 879.9 ± 0.82
323.15 K, x1 = 0.8728 | 872.43 ± 0.85
323.15 K, x1 = 0.9511 | 861.36 ± 0.9
323.15 K, x1 = 1 | 854.51 ± 0.93
333.15 K, x1 = 0.0579 | 986.94 ± 0.4
333.15 K, x1 = 0.1023 | 979.83 ± 0.43
333.15 K, x1 = 0.1814 | 967.25 ± 0.48
333.15 K, x1 = 0.2556 | 955.59 ± 0.52
333.15 K, x1 = 0.3135 | 946.59 ± 0.56
333.15 K, x1 = 0.3815 | 936.11 ± 0.6
333.15 K, x1 = 0.4478 | 926.02 ± 0.64
333.15 K, x1 = 0.5014 | 917.94 ± 0.68
333.15 K, x1 = 0.5654 | 908.37 ± 0.71
333.15 K, x1 = 0.6122 | 901.45 ± 0.74
333.15 K, x1 = 0.6632 | 893.96 ± 0.77
333.15 K, x1 = 0.8105 | 872.67 ± 0.85
333.15 K, x1 = 0.8744 | 863.57 ± 0.89
333.15 K, x1 = 0.9214 | 856.93 ± 0.92
333.15 K, x1 = 0.9632 | 851.06 ± 0.94
333.15 K, x1 = 1 | 845.91 ± 0.96
343.15 K, x1 = 0.0462 | 979.94 ± 0.43
343.15 K, x1 = 0.1045 | 970.59 ± 0.46
343.15 K, x1 = 0.1614 | 961.55 ± 0.5
343.15 K, x1 = 0.2153 | 953.05 ± 0.53
343.15 K, x1 = 0.2864 | 941.94 ± 0.58
343.15 K, x1 = 0.3576 | 930.94 ± 0.62
343.15 K, x1 = 0.4102 | 922.9 ± 0.66
343.15 K, x1 = 0.4828 | 911.91 ± 0.7
343.15 K, x1 = 0.5477 | 902.2 ± 0.74
343.15 K, x1 = 0.6065 | 893.5 ± 0.77
343.15 K, x1 = 0.6735 | 883.68 ± 0.81
343.15 K, x1 = 0.7533 | 872.13 ± 0.86
343.15 K, x1 = 0.8095 | 864.07 ± 0.89
343.15 K, x1 = 0.8745 | 854.83 ± 0.93
343.15 K, x1 = 0.9407 | 845.51 ± 0.96
343.15 K, x1 = 1 | 837.23 ± 1
353.15 K, x1 = 0.0475 | 970.95 ± 0.46
353.15 K, x1 = 0.1037 | 961.94 ± 0.5
353.15 K, x1 = 0.1582 | 953.26 ± 0.53
353.15 K, x1 = 0.2167 | 944.03 ± 0.57
353.15 K, x1 = 0.2633 | 936.72 ± 0.6
353.15 K, x1 = 0.34 | 924.83 ± 0.65
353.15 K, x1 = 0.4067 | 914.62 ± 0.69
353.15 K, x1 = 0.4529 | 907.6 ± 0.72
353.15 K, x1 = 0.5184 | 897.76 ± 0.76
353.15 K, x1 = 0.5689 | 890.24 ± 0.79
353.15 K, x1 = 0.6322 | 880.91 ± 0.82
353.15 K, x1 = 0.7097 | 869.62 ± 0.87
353.15 K, x1 = 0.7859 | 858.64 ± 0.91
353.15 K, x1 = 0.8511 | 849.36 ± 0.95
353.15 K, x1 = 0.9354 | 837.48 ± 1
353.15 K, x1 = 1 | 828.47 ± 1
